Molecular target: T1, GPCR GPR40 (Homo sapiens, UniProt O14842)
T1 construct: expressed in transfected cells; host or cells: HEK293
Experiment: In vitro FLIPR assay with recombinant cells which express the GPCR GPR40
Assay type: cell-based
Conditions: 100 μM test substance; intracellular Ca2+ change in recombinant HEK293 cells expressing GPR40; relative to control (0%: no test substance; 100%: 10 μM linoleic acid)
Procedure: In Vitro FLIPR Assay with Recombinant Cells which Express the GPCR GPR40
Function-testing assays were carried out by means of the FLIPR technique (“Fluorescence Imaging Plate Reader”, Molecular Devices Corp.). For this purpose, agonist-induced changes in the intracellular concentration of Ca^2+ in recombinant HEK293 cells which expressed the GPCR GPR40 were determined.
For the investigations, cells were seeded in 96-well microtiter plates (60 000 cells/well) and allowed to grow overnight. The medium was removed and the cells were incubated in buffer which contained the fluorescent dye fluo-4. After this loading with dye, the cells were washed, test substance was added, and changes in the intracellular Ca^2+ concentration were measured in the FLIPR instrument. Results have been presented as percentage change relative to the control (0%: no test substance added; 100%: 10 μM reference agonist linoleic acid added).

T1 sequence (O14842 whole entry): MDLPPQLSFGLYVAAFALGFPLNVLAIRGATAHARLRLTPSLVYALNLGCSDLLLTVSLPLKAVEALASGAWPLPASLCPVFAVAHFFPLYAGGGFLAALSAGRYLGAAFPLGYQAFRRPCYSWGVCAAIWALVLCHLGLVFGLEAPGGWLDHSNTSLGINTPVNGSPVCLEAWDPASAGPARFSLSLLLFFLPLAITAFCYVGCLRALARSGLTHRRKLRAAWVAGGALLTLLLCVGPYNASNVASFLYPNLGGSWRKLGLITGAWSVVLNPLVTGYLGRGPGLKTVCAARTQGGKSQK

Row | SMILES | % activation @ 100 μM
1 | O=C(O)CCCC#Cc1ncc(-c2ccccc2)c(-c2ccccc2)n1 [Example 1] | 58%
2 | O=C(O)CCCCC#Cc1ncc(-c2ccccc2)c(-c2ccccc2)n1 [Example 2, 7-(4,5-Diphenylpyrimidin-2-yl)-6-heptynoic Acid] | 104%
